“Also recorded” adds a separate entry of the source.
How the values were obtained:
[1] = Persistence of EGF in the wound bed by ELISA specific to anti-human EGF; format: in vivo, mouse; conditions: for persistence of EGF in the wound bed: mass per mm^2 of tissue, in vivo
Protocol: Detection of crosslinked EGF on dermal wounds: Persistence of CxEGF, qEGF and soluble EGF in the wound bed was determined using ELISA specific to anti-human EGF. Mice were euthanized at each time point and the wound bed was harvested. The tissue was digested using 7.5 Units/ml collagenase in the presence of 1 μM dithiothreitol (DTT) over 2 h at 37° C. This was centrifuged at 14000 RPM and the supernatant following which ELISA was performed. Specificity of the ELISA was verified using mouse recombinant EGF. Amount of EGF (mg) measured on the wound bed was expressed per surface area (mm^2) of the tissue.
The feasibility to tether sulfo-SMCC modified nanospheres to graft tissue was first evaluated (FIG. 9). Full thickness splinted wounds (8 mm in diameter) were created on heterozygous (db+/−;BKS.Cg-m+/+Leprdb) mouse as described above. Wound surfaces were treated with a reducing agent (tris(2-carboxyethyl)phosphine; TCEP) to break the disulfide bonds. The crosslinkers and reducing agents were used at non-toxic doses (FIG. 10). […] Immediately after the treatment, wounds were covered with a semi-occlusive dressing to minimize scab formation (Park Shin Ae et al., 2014). Wound beds were harvested at various time points and the presence of EGF attached on the surfaces was determined by ELISA (FIG. 3B). […] A gradual decrease in the amount of surface immobilized EGF was observed after 2 days. […] We note that the number of disulfide bonds available for anchoring CxEGF is difficult to ascertain in vivo and may thus contribute to the partial surface coverage. Secondary validation of the linkage chemistry was done using an in vitro model of the surface chemistry using (3 mercaptopropyl)trimethoxysilane (MPTS) or trimethoxy(propyl)silane (TPS) and maleimide by a reduction in contact angle and increased thickness of deposition (FIG. 3D). The mercapto group on the MPTS simulated sulfhydryl groups present on a native wound bed, and TPS was devoid of any functional group simulating a passivated wound surface.

[2] = system: HaCaT cells; assay: HaCaT proliferation (MTT) on surfaces with covalently immobilized EGF; format: cell-based, human
Protocol: Human 433 immortalized kertinocytes (HaCaT) cells were cultured in growth medium containing 1% (v/v) serum (FBS). The proliferation rates are expressed as % control when cultured on surfaces [trimethoxy(propyl)silane (TPS) or 3-mercaptopropyl trimethoxysilane (3-MPTS)] immobilized with EGF. As positive control, cells were also cultured in the growth medium containing 10% 437 (v/v) FBS. ***p<0.001, one-way ANOVA followed by Dunnett's multiple comparison test compared with control cultures (cells cultured in media with 1% serum).
In vitro surface modification: An in vitro model of the wound surface was generated by silanizing glass coverslips with either trimethoxy(propyl)silane (TPS) or 3-mercaptopropyl trimethoxysilane (3-MPTS). Disulfide bonds (if any) on the surface of the silanated coverslips were reduced using 10 μM tris(2-carboxyethyl)phosphine (TCEP) for 10 min to generate an abundance of —SH bonds. These exposed —SH groups were used to covalently immobilize EGF.
Measuring bioactivity in vitro: Human immortalized kertinocytes (HaCaT cells) were plated on unmodified glass surfaces, or on surfaces covalently immobilized with EGF, or on surfaced with quenched EGF, in Dulbeccos' modified Eagle's medium (DMEM) supplemented with 1% fetal bovine serum and proliferation was determined after 5 days using the MTT assay (Raghunathan et al., 2013). […]

[3] = system: wound bed from a db/db mouse; assay: Histopathological evaluation of wound bed of db/db mice after 11 days; format: in vivo
Text: FIG. 5A-C. Histopathological evaluations of a wound bed from a db/db mouse treated with/without crosslinked EGF over 11 days upon wounding. Scale Bars=500 μm. (A) Measurement of epithelial gap (blue line) and reepithelialization (red line). The epithelial gap was defined as the distance between the advancing edges of keratinocyte migration measured in millimeters. Length of reepithelialization was defined as the length of the layer of proliferating keratinocytes covering the wound area. This value was obtained by measuring s the distance between the free edge of the keratinocyte layer and the base where the cells were still associated with native, non-affected dermal tissue. The final value was the sum of distance in millimeters of both sides. H&E staining. Graphs indicate the mean f standard deviation of epithelial gap/re-epithelialized measure on surface wounds after 11 days with or without treatments. (B) Measurement of the fibrovascular dermal proliferation in the wound bed. Using picrosirius red stain under polarized light the bright collagen fibers of the wound bed are highlighted and automatically measured by the software. The final data is expressed as a percentage of outlined wound area comprised of collagen. Graphs indicate the mean f standard deviation of % collagen measured in surface wounds after 11 days with or without treatments. […] The inflammatory response was assessed using a semi-quantitative scoring system ranging from 0 to 4 where 0 indicates no inflammation, 1 indicates 0-25% of the wound area affected, 2 indicates 25-50% of the wound area affected, 3 indicates 50-75% of the wound area affected, and 4 indicates 75% of the wound area affected. H&E staining. Graphs indicate the mean±standard deviation of inflammation score. *p<0.05 compared with qEGF-6x, #p<0.05 compared with NoTx (t-test/Mann-Whitney rank sum test).
FIG. 11. Percentage distribution of inflammatory cells in wound bed of diabetic mice at the end of 11 days. […] Results are mean f standard deviation of the ratio of positive cells to total number of cells in the wound bed.
(§1) Clinical and histological analyses: All analyses were performed as described previously (Park S. A. et al., 2014). Briefly, wounds were clinically evaluated and imaged daily, and the wound area was measured using image analysis software, and percentage wound closure was calculated. Mice were humanely euthanized on day 11 and the entire wound bed was harvested. Histologic analyses was performed by a board-certified veterinary pathologist.

[4] = system: full thickness splinted wounds (8 mm diameter) of db/db mice; assay: Wound closure of full thickness splinted dermal wounds in diabetic mice; format: in vivo, mouse; conditions: for percentage wound closure: treated 6 times over 11 days (every other day)
Text: In vivo studies: All procedures adhered to the recommendations in the Guide for the Care and Use of Laboratory Animals of the National Institutes of Health. The protocol for this experiment was approved by the Institutional Animal Care and Use Committee of University of California, Davis.
Creating of full thickness splinted dermal wounds: Genetically diabetic 12 week old male mice (db/db; BKS.Cg-m+/+Leprdb; Jackson Laboratories, Bar Harbor, ME) were used for this study. […] 8 mm Full thickness wounds were created on the dorsal surface of db/db mice as described previously (Park S. A. et al., 2014).
Mice in the sEGF group received native EGF (300 ng) dissolved in PEG immediately after wounding and twice daily until day 10. The NoTx group remained without any treatment through the study period. All wounds were dressed using a sterile coverslip and a semi-occlusive bandage.
as §1

[5] = system: HaCaT cells; assay: HaCaT proliferation with soluble EGF; format: cell-based, human; conditions: 1% FBS, 0-80 ng/ml soluble EGF
Protocol: FIG. 8. In vitro proliferation rates of spontaneously immortalized human keratinocytes (HaCaT cells), cultured in growth medium containing 1% (v/v) serum (FBS), treated with 0-80 ng/ml soluble EGF. Results are mean f standard deviation, ***p<0.001 (ANOVA followed by Dunnett's multiple comparison test) compared with control cultures.
EGF is a key growth factor involved in triggering wound re-epithelialization, one of the critical early events in wound closure, whose prolonged exposure is required for eliciting a cellular response (Bennett N. T. and Schultz G. S., 1993, Bennett N. T. and Schultz G. S., 1993, 171 Gipson and Inatomi, 1995, Jost et al., 2000). […] A full thickness splinted wound (8 mm in diameter) was created on each heterozygous (db+/−; BKS.Cg-m+/+ Leprdb) mouse as described previously (Park Shin Ae et al., 2014). […] Functional bioactivity of EGF was determined in vitro using spontaneously transformed keratinocytes (HaCaT cell line) from histologically normal skin (FIG. 8). As a possible contributor to the lack of significant positive effect, we observed a rapid loss of recombinant human EGF from the surface of wounds within 1 h of topical administration (FIG. 2B). […]

[6] = system: deep-partial burn wounds; conditions: cited from earlier work
[7] = 30 ng crosslinked onto TCEP treated wound surface
[8] = ratio of positive cells to total cells, after 11 days
[9] = 6x, every other day over 11 days

In the case of “CxEGF: Human recombinant EGF conjugated with sulfo-SMCC, covalently crosslinked onto TCEP-reduced wound surface”, the apparent surface coverage [1, 7] is reported as 2 pg/mm^2, the “sustained surface immobilization of the growth factor” value [1, 7] is reported as 2 days and the “persistence of EGF in the wound bed” value ([1]; ELISA) is reported as “increases persistence of EGF on the wound surface”. For the same substance, the “apparent surface coverage (equivalent)” value ([1]; equivalent of the pg/mm^2 value) was 1.99×10^8 molecules/mm^2, the “surface coverage as fraction of a theoretical monolayer of EGF” value ([1]; theoretical monolayer 213.6 pg/mm^2) was 1/100 and the “proliferation rate (% control)” value ([2]; HaCaT, 1% FBS, TPS or 3-MPTS surfaces immobilized with EGF) was “strongly promotes proliferation”. The “increase in cell proliferation” value ([2]; immobilized on MPTS or TPS coated glass, MTT, after 3 days of treatment) was “over 2 fold”, the “inflammation (semi-quantitative score 0 to 4)” value ([3]; 6x, day 11, H&E) was “reduction in inflammation” and the epithelial gap ([3]; 6x, day 11, H&E, versus qEGF, no treatment or soluble EGF) was “dramatic decreases in epithelial gap”. For the same substance, the “inflammation (semi-quantitative score 0 to 4)” value ([3]; 6x, day 11, H&E, listed as Cross linked EGF) was “elicited less inflammation”, the collagen content ([3]; 6x, day 11, picrosirius red) was “comparable collagen content” and the “F-480 positive macrophages in wound bed” value [3, 8] was “No statistically significant differences”. For the same substance, the “GR1 positive granulocytes in wound bed” value [3, 8] was “No statistically significant differences”, the “wound closure rate (reduction of wound radii)” value ([4]; 1x, immobilization only once immediately after wounding) was “no significant effects on wound closure rate” and the “wound closure rate (decrease in wound radius per day)” value ([4]; 3x, every 4 days) was “significantly higher wound closure rate”. The “wound closure rate (decrease in wound radius per day)” value [4, 9] was “significantly higher wound closure rate” and the percentage wound closure ([4]; db/db mice) was “significant acceleration of wound closure; also recorded: significantly improved wound healing”.
In the case of “sEGF: Human recombinant EGF (ProspecBio) dissolved in 5% (w/v) polyethylene glycol, applied topically”, the “persistence of EGF in the wound bed” value ([1]; ELISA) is reported as “rapidly removed from wound surface”, the “loss of recombinant human EGF from the surface of wounds after topical administration” value ([1]; topical administration, wound surface, ELISA) is reported as ≤ 1 h and the “percentage wound closure / epithelial closure” value ([4]; soluble EGF 300 ng topically twice daily, over 11 days, db/db mice) is reported as “did not significantly alter wound healing or epithelial closure; also recorded: did not promote epithelial closure”. For the same substance, the “in vitro proliferation rate” value [5] was “increased cell proliferation”.
With “qEGF: s-SMCC conjugated EGF with its maleimide group quenched with β-mercaptoethanol (NSDSECPLSHDGYCLHDGVCMYIEALDKYACNCVVGYIGERCQYRDLKWWELR; Epidermal growth factor sulfo-SMCC, maleimide quenched with β-mercaptoethanol; UniProt P01133 971-1023, looked up) [reference compound]” the “wound closure rate (decrease in wound radius per day)” value [4, 9] was “ineffective in altering wound healing rates” and the percentage wound closure ([4]; db/db mice) was “NoTx group had a significantly higher percentage wound closure compared to the qEGF group”.
In the case of “aFGF: topical recombinant human acidic fibroblast growth factor”, the fully healed rate ([6]; deep-partial burn wounds, versus placebo) is given as 53.85% and the “mean healed time of the burn wounds” value ([6]; placebo 18.92±0.49, p=0.035) is given as 17.23±0.53.

— patent US20240209047A1, “GROWTH FACTOR CONJUGATES” (priority 2021, published 2024)
